{"source": "patent US10688099B2", "about": "“Methods for modulating the amount of RNA transcripts” (PTC Therapeutics, Inc., priority 2013, dated 2020)", "key": {"[1]": {"test_system": "human genes (total transcript abundance) in PNN 1-46 cells", "experiment": "RNA sequencing, total transcript abundance at the gene level, Compound vs DMSO control", "format": "cell-based", "protocol": "PNN 1-46 cells derived from a Type I SMA patient were treated with Compound 702 at 500 nM for 24 hours. RNA was purified with the RNeasy Mini Kit (Qiagen) for mRNA sequencing on HiSeq 2500 (Illumina Inc., San Diego, Calif.). The quality of the total RNA was assessed using UV spectrophotometry and agarose gel electrophoresis. Template DNA molecules suitable for cluster generation were prepared from 1 ug of total RNA samples using the TruSeq RNA Sample Preparation Kit v2 (Illumina Inc., San Diego, Calif.) according to the manufacturer's instructions. The size distribution of the libraries was estimated by electrophoresis on Agilent High Sensitivity Bioanalyzer microfluidic chips. The minimum and average sizes of the amplified libraries were determined to be >200 nucleotides and 300-340 nucleotides, respectively. Libraries were quantified using the KAPA Library Quantification Kit (KK4824, Kapa Biosystems, Boston, Mass.). The libraries were pooled at equimolar concentrations and diluted prior to loading onto the flow cell of the HiSeq 2500 (Illumina Inc., San Diego, Calif.) for both clustering and sequencing. The libraries were extended and bridge-amplified to create single sequence clusters using the TruSeq Rapid PE Cluster Kit—HS (Illumina Inc., San Diego, Calif.). Amplified clusters in the flow cell were then sequenced with 50-bp paired-end reads using the TruSeq Rapid SBS Kit—HS (Illumina Inc., San Diego, Calif.) in rapid run mode. Real time image analysis and base calling were performed on the HiSeq 2500 instrument using the HiSeq Sequencing Control Software (HCS). […]\n(§1) In order to estimate gene expression levels, paired-end RNAseq reads were subsequently mapped to RefSeq human transcripts (release 60) and the human genome (hg19) by using the short read aligner Bowtie2 (Langmead et al., 2012. Nature methods 9:357). The number of mapped reads for all transcript variants of a gene (counts) were combined into a single value and normalized denoted as rpkms (number of mapped reads per kilobase transcript per million sequenced reads, (Mortazavi et al., 2008. Nature methods 5:621)). The splice-site analysis was performed by mapping the paired-end RNASeq reads to RefSeq human transcripts using the alignment software GSNAP with default parameters and the option ‘sam-multiple-primaries’ in order to account for reads that were mapped multiple times to different splice variants. The number of reads spanning splice-sites was determined by applying the samtools mpileup software with default parameters for each transcript. Reads having an alignment start or end exactly on the splice-site were excluded from the analysis (Wu et al., 2005, Bioinformatics 21:1859; Wu et al., 2010, Bioinformatics 26:873; Li et al., 2009, Bioinformatics 25:2078). […]"}, "[2]": {"test_system": "splice junctions in human transcripts, PNN 1-46 cells", "experiment": "RNA sequencing, splice-site (splice junction) analysis, Compound vs DMSO control", "format": "cell-based", "protocol": "PNN 1-46 cells derived from a Type I SMA patient were treated with Compound 702 at 500 nM for 24 hours. RNA was purified with the RNeasy Mini Kit (Qiagen) for mRNA sequencing on HiSeq 2500 (Illumina Inc., San Diego, Calif.). The quality of the total RNA was assessed using UV spectrophotometry and agarose gel electrophoresis. Template DNA molecules suitable for cluster generation were prepared from 1 ug of total RNA samples using the TruSeq RNA Sample Preparation Kit v2 (Illumina Inc., San Diego, Calif.) according to the manufacturer's instructions. The size distribution of the libraries was estimated by electrophoresis on Agilent High Sensitivity Bioanalyzer microfluidic chips. The minimum and average sizes of the amplified libraries were determined to be >200 nucleotides and 300-340 nucleotides, respectively. Libraries were quantified using the KAPA Library Quantification Kit (KK4824, Kapa Biosystems, Boston, Mass.). The libraries were pooled at equimolar concentrations and diluted prior to loading onto the flow cell of the HiSeq 2500 (Illumina Inc., San Diego, Calif.) for both clustering and sequencing. The libraries were extended and bridge-amplified to create single sequence clusters using the TruSeq Rapid PE Cluster Kit—HS (Illumina Inc., San Diego, Calif.). Amplified clusters in the flow cell were then sequenced with 50-bp paired-end reads using the TruSeq Rapid SBS Kit—HS (Illumina Inc., San Diego, Calif.) in rapid run mode. Real time image analysis and base calling were performed on the HiSeq 2500 instrument using the HiSeq Sequencing Control Software (HCS). CASAVA software version 1.8 was used for de-multiplexing and production of FASTQ sequence files.\nas §1"}, "[3]": {"conditions": "500 nM vs DMSO control, FIG. 2C"}}, "data": [{"smiles": "CCN1CCC(c2cc(C)c3nc(-c4cc5c(C)nc(C)cn5n4)cc(=O)n3c2)CC1", "note": "[Compound 702]", "values": [{"measurement": "genes up- or downregulated, respectively, at threshold |Log2FC| 1", "setting": "[1]; 500 nM vs DMSO control, 11,714 human genes with rpkm >1, FIG. 2B", "result": "six"}, {"measurement": "change in total mRNA abundance of SMN2", "setting": "[1]; 500 nM vs DMSO control, PNN 1-46, 24 hours, FIG. 2A", "result": "no change"}, {"measurement": "Log2FC of total transcript expression of POLN (DNA polymerase nu)", "setting": "[1]; 500 nM vs DMSO control, only changed gene among the gene families of FIG. 3", "result": "> 1"}, {"measurement": "deregulation in gene families involved in DNA or RNA metabolism or cell survival", "setting": "[1]; 500 nM, 24 hours, PNN 1-46, FIG. 3", "result": "No deregulation"}, {"measurement": "effect on STRN3 transcript variants", "setting": "[2]; [3]", "result": "a switch between variants NM_014574 and NM_001083893"}, {"measurement": "genes to which the splice junctions with p>300 belong", "setting": "[2]; [3]", "result": "SMN2, PDXDC1, STRN3, and pseudogene PDXDC2P"}, {"measurement": "splice junctions with p>300 (p=Δ×Log2 FC)", "setting": "[2]; [3]", "result": 20, "unit": "splice junctions"}, {"measurement": "splice junctions with p>300 that belong to PDXDC1, all similarly affected", "setting": "[2]; [3]", "result": 15, "unit": "splice junctions"}, {"measurement": "splice junctions with p>100 (p=Δ×Log2 FC)", "setting": "[2]; 500 nM vs DMSO control, out of about 300,000 splice junctions analyzed, FIG. 2C", "result": 114, "unit": "splice junctions"}, {"measurement": "up spl j gene (gene with upregulated splice junctions)", "setting": "[2]; PNN 1-46, 500 nM, 24 hours, splice junctions with p>100, * = pseudogene", "result": "STRN3 and APLP2 and TEX21P* and RCC1 and FOXM1 and VPS29"}]}]}
